According to US9149038B2, “4-amino-6-(heterocyclic)picolinates and 6-amino-2-(heterocyclic)pyrimidine-4-carboxylates and their use as herbicides” (Dow AgroSciences LLC, priority 2013, dated 2015):
Like-named read-outs stand apart in the source and are kept apart here.

How the values were obtained:
[1] = tested on: Key Broadleaf Weed and Crop Species; assay: Post-Emergent Test II: postemergent herbicidal activity, visual rating after 14 d (Table 7); assay type: in vivo; conditions: post-emergence, 336 h; for pest or weed control at 35 g/ha: 35 g ai/ha; for pest or weed control at 70 g/ha: 70 g ai/ha; for pest or weed control at 140 g/ha: 140 g ai/ha
Source text: (§1) Herbicidal evaluations were made visually on a scale of 0 to 100 where 0 represents no activity and 100 represents complete plant death.
(§2) Seeds or nutlets of the desired test plant species were planted in Sun Gro Metro-Mix® 360 planting mixture, which typically has a pH of 6.0 to 6.8 and an organic matter content of about 30 percent, in plastic pots with a surface area of 64 square centimeters (cm^2). When required to ensure good germination and healthy plants, a fungicide treatment and/or other chemical or physical treatment was applied. The plants were grown for 7-21 d in a greenhouse with an approximate 15 h photoperiod which was maintained at about 23-29° C. during the day and 22-28° C. during the night. Nutrients and water were added on a regular basis and supplemental lighting was provided with overhead metal halide 1000-Watt lamps as necessary. The plants were employed for testing when they reached the first or second true leaf stage.
(§3) A weighed amount, determined by the highest rate to be tested, of each test compound was placed in a 25 mL glass vial and was dissolved in 4 mL of a 97:3 v/v mixture of acetone and DMSO to obtain concentrated stock solutions. […] The concentrated stock solutions obtained were diluted with 20 mL of an aqueous mixture containing acetone, water, isopropyl alcohol, DMSO, Atplus 411F crop oil concentrate, and Triton® X-155 surfactant in a 48.5:39:10:1.5:1.0:0.02 v/v ratio to obtain spray solutions containing the highest application rates. Additional application rates were obtained by serial dilution of 12 mL of the high rate solution into a solution containing 2 mL of a 97:3 v/v mixture of acetone and DMSO and 10 mL of an aqueous mixture containing acetone, water, isopropyl alcohol, DMSO, Atplus 411F crop oil concentrate, and Triton X-155 surfactant in a 48.5:39:10:1.5:1.0:0.02 v/v ratio to obtain ½×, ¼×, ⅛× and 1/16× rates of the high rate. Compound requirements are based upon a 12 mL application volume at a rate of 187 liters per hectare (L/ha). Formulated compounds were applied to the plant material with an overhead Mandel track sprayer equipped with 8002E nozzles calibrated to deliver 187 L/ha over an application area of 0.503 square meters at a spray height of 18 inches (43 cm) above the average plant canopy height. Control plants were sprayed in the same manner with the solvent blank.
(§4) The treated plants and control plants were placed in a greenhouse as described above and watered by subirrigation to prevent wash-off of the test compounds. After 14 d, the condition of the test plants as compared with that of the untreated plants was determined visually and scored on a scale of 0 to 100 percent where 0 corresponds to no injury and 100 corresponds to complete kill and are presented as indicated in Table 4.

[2] = tested on: Key Grass and Sedge Weeds as well as Grass Crops; assay: Post-Emergent Test II: postemergent herbicidal activity, visual rating after 14 d (Table 8); assay type: in vivo; conditions: post-emergence, 336 h; for pest or weed control at 35 g/ha: 35 g ai/ha; for pest or weed control at 70 g/ha: 70 g ai/ha; for pest or weed control at 140 g/ha: 140 g ai/ha
Source text: as §1, §2, §3, §4

[3] = lambsquarters (Chenopodium album), read-out: Visual Growth Reduction (%) 14 Days After Application CHEAL
[4] = oilseed rape, canola (Brassica napus), read-out: Visual Growth Reduction (%) 14 Days After Application BRSNN
[5] = redroot pigweed (Amaranthus retroflexus), read-out: Visual Growth Reduction (%) 14 Days After Application AMARE
[6] = sunflower (Helianthus annuus), read-out: Visual Growth Reduction (%) 14 Days After Application HELAN
[7] = velvetleaf (Abutilon theophrasti), read-out: Visual Growth Reduction (%) 14 Days After Application ABUTH
[8] = wild poinsettia (Euphorbia heterophylla), read-out: Visual Growth Reduction (%) 14 Days After Application EPHHL
[9] = barnyardgrass (Echinochloa crus-galli), read-out: Visual Growth Reduction (%) 14 Days After Application ECHCG
[10] = giant foxtail (Setaria faberi), read-out: Visual Growth Reduction (%) 14 Days After Application SETFA
[11] = rice (Oryza sativa), read-out: Visual Growth Reduction (%) 14 Days After Application ORYSA
[12] = wheat, spring (Triticum aestivum), read-out: Visual Growth Reduction (%) 14 Days After Application TRZAS
[13] = yellow nutsedge (Cyperus esculentus), read-out: Visual Growth Reduction (%) 14 Days After Application CYPES
[14] = maize, corn (Zea mays), read-out: Visual Growth Reduction (%) 14 Days After Application ZEAMX

| Compound | pest or weed control at 35 g/ha [1, 3] [%] | pest or weed control at 70 g/ha [1, 3] [%] | pest or weed control at 140 g/ha [1, 3] [%] | pest or weed control at 35 g/ha [1, 4] [%] | pest or weed control at 70 g/ha [1, 4] [%] | pest or weed control at 140 g/ha [1, 4] [%] | pest or weed control at 35 g/ha [1, 5] [%] | pest or weed control at 70 g/ha [1, 5] [%] | pest or weed control at 140 g/ha [1, 5] [%] | pest or weed control at 35 g/ha [1, 6] [%] | pest or weed control at 70 g/ha [1, 6] [%] | pest or weed control at 140 g/ha [1, 6] [%] | pest or weed control at 35 g/ha [1, 7] [%] | pest or weed control at 70 g/ha [1, 7] [%] | pest or weed control at 140 g/ha [1, 7] [%] | pest or weed control at 35 g/ha [1, 8] [%] | pest or weed control at 70 g/ha [1, 8] [%] | pest or weed control at 140 g/ha [1, 8] [%] | pest or weed control at 35 g/ha [2, 9] [%] | pest or weed control at 70 g/ha [2, 9] [%] | also measured |
| --- | --- | --- | --- | --- | --- | --- | --- | --- | --- | --- | --- | --- | --- | --- | --- | --- | --- | --- | --- | --- | --- |
| COC(=O)c1nc(-c2ccc(Cl)c3c2OC(F)(F)O3)c(Cl)c(N)c1Cl [Compound 70] | 75 to 84 | 85 to 94 | 95 to 100 | 60 to 74 | 60 to 74 | 75 to 84 | 95 to 100 | 95 to 100 | 95 to 100 | 85 to 94 | 95 to 100 | 95 to 100 | 45 to 59 | 75 to 84 | 75 to 84 | 0 to 29 | 0 to 29 | 0 to 29 | 0 to 29 | 0 to 29 | pest or weed control at 140 g/ha [2, 9]: 0 to 29%; pest or weed control at 35 g/ha [2, 10]: 0 to 29%; pest or weed control at 70 g/ha [2, 10]: 0 to 29%; pest or weed control at 140 g/ha [2, 10]: 0 to 29%; pest or weed control at 35 g/ha [2, 11]: 0 to 29%; pest or weed control at 70 g/ha [2, 11]: 0 to 29%; pest or weed control at 140 g/ha [2, 11]: 0 to 29%; pest or weed control at 35 g/ha [2, 12]: 0 to 29%; pest or weed control at 70 g/ha [2, 12]: 0 to 29%; pest or weed control at 140 g/ha [2, 12]: 0 to 29%; pest or weed control at 35 g/ha [2, 13]: 0 to 29%; pest or weed control at 70 g/ha [2, 13]: 0 to 29%; pest or weed control at 140 g/ha [2, 13]: 0 to 29% |
| COC(=O)c1nc(-c2cc3c(cc2Cl)OC(F)(F)O3)cc(N)c1Cl [Compound 40] | 0 to 29 | 0 to 29 | 0 to 29 | 0 to 29 | 0 to 29 | 0 to 29 | 0 to 29 | 95 to 100 | 95 to 100 | 0 to 29 | 0 to 29 | 0 to 29 | 0 to 29 | 0 to 29 | 0 to 29 | 0 to 29 | 0 to 29 | 0 to 29 | 0 to 29 | 0 to 29 | pest or weed control at 140 g/ha [2, 9]: 0 to 29%; pest or weed control at 35 g/ha [2, 14]: 0 to 29%; pest or weed control at 70 g/ha [2, 14]: 0 to 29%; pest or weed control at 140 g/ha [2, 14]: 45 to 59%; pest or weed control at 35 g/ha [2, 11]: 0 to 29%; pest or weed control at 70 g/ha [2, 11]: 0 to 29%; pest or weed control at 140 g/ha [2, 11]: 0 to 29%; pest or weed control at 35 g/ha [2, 12]: 0 to 29%; pest or weed control at 70 g/ha [2, 12]: 0 to 29%; pest or weed control at 140 g/ha [2, 12]: 0 to 29%; pest or weed control at 35 g/ha [2, 13]: 0 to 29%; pest or weed control at 70 g/ha [2, 13]: 0 to 29%; pest or weed control at 140 g/ha [2, 13]: 0 to 29% |
| Nc1nc(-c2ccc3c(c2)OC(F)(F)O3)nc(C(=O)O)c1Cl [Compound 61] | 60 to 74 | 60 to 74 | 75 to 84 | 60 to 74 | 85 to 94 | 75 to 84 | 0 to 29 | 30 to 44 | 30 to 44 | 60 to 74 | 60 to 74 | 75 to 84 | 45 to 59 | 60 to 74 | 60 to 74 | 85 to 94 | 95 to 100 | 95 to 100 | 85 to 94 | 85 to 94 | pest or weed control at 140 g/ha [2, 9]: 85 to 94%; pest or weed control at 35 g/ha [2, 10]: 60 to 74%; pest or weed control at 70 g/ha [2, 10]: 75 to 84%; pest or weed control at 140 g/ha [2, 10]: 85 to 94%; pest or weed control at 35 g/ha [2, 11]: 0 to 29%; pest or weed control at 70 g/ha [2, 11]: 45 to 59%; pest or weed control at 140 g/ha [2, 11]: 60 to 74%; pest or weed control at 35 g/ha [2, 12]: 60 to 74%; pest or weed control at 70 g/ha [2, 12]: 75 to 84%; pest or weed control at 140 g/ha [2, 12]: 75 to 84%; pest or weed control at 35 g/ha [2, 13]: 0 to 29%; pest or weed control at 70 g/ha [2, 13]: 0 to 29%; pest or weed control at 140 g/ha [2, 13]: 45 to 59% |
